Measured values taken from patent US20030044974A1, “Method for collecting cells in M phase or G1 phase and method for nuclear transplantation using the cells” (priority 2001, published 2003).
Marks after values point to notes of the source that are not given here.

Columns and labels:
[1] = tested on: cells; settings: nocodazole treatment, cells collected by the shaking method; cited from earlier work
[2] = tested on: bovine fibroblast cells; assay: Combination of metaphase-synchronizing agent and shaking treatment: cell cycles of cells recovered from culture supernatant (Comparative Example 2); type: cell-based
Protocol: Fibroblast Cells and Observation Thereof Fetal fibroblast cells were recovered by collecting the medium containing the cells in a 15 ml test tube and by centrifuging the medium (180g, 5 minutes). After the centrifugation, the cell precipitate was resuspended with a small amount of the medium, and the resulting cell suspension was uniformly smeared on a slide glass. The slide glass was air-dried at room temperature and the cells were fixed (99.9% ethanol, 5 minutes) to prepare preparations.
Thirty minutes later, the whole culture supernatant was recovered after subjecting the petri dish to shaking treatment, or without the shaking treatment. The shaking treatment was carried out by intimately attaching the bottom plate of the plastic petri dish to a mixer (IKEDA RIKA, D-10) and driving the mixer to circularly move the petri dish for 1 minute (3000 rpm, diameter of circular movement: 0.3 cm). […] The cell pellet was resuspended in a small amount of the medium and the obtained cell suspension was smeared on a slide glass.
How the cell cycles of the cells recovered from the culture supernatant change by combination of the metaphase-synchronizing agent (2-MeOE2) and the shaking treatment was investigated with successively repeating the step of shaking treatment and the subsequent recovery 3 times. […] Thirty minutes later, shaking treatment was performed as in the first time and the second time, and the culture supernatant was centrifuged to recover the cells (third time recovered cells). The cells obtained using different concentrations of the metaphase-synchronizing agent and obtained in different times of recovery were respectively resuspended in a small amount of the medium and smear preparations were prepared. The smear preparations were air-dried, fixed, stained and observed.

[3] = tested on: bovine fibroblast cells; assay: Collection of M phase cells: synchronization, shaking treatment and selection by size with 20 μm pipette (Example 1)
Excerpt: As the bovine fibroblast cells (Japanese black), the cells from a fetal at Day 54 from conception were used. The recovered fetus was aseptically minced and digested with trypsin. The cell suspension was recovered and cultured in Dulbecco's modified eagle medium (D-MEM, Gibco BRL, Cat No. 11885-084, MD, USA), followed by storing frozen cells (one passage). For experiments, the frozen stored cells seeded on a 10 cm plastic petri dish (Falcon, 353003) were once subcultured, and the cells grown to logarithmic growth phase were used.
For synchronization to metaphase, 10% FBS-containing minimum essential medium (S-MEM, Cat. No.11385-036,Gibco BRL, MD, USA) supplemented with 2-methoxyestadiol (2-MeOE2, Cat No.M6383, Sigma chemical Co., MO, USA) to a concentration of 0.5 μM or 1 μM was used.
Each preparation was stained with Hoechst 33342 (Sigma Chemical Co, MO, USA) and observed with a fluorescence microscope. Only the cells having clear boundary of cell membrane were used for judgment. In Comparative Examples 1 and 2, the cells in prophase, metaphase, anaphase and telophase of cell cycle were classified into the cells in mitotic phase (M phase). The cells containing only one nucleus covered with a nuclear membrane were judged as the cells in interphase. The cells in which the nucleus in the cytoplasm is fragmented, the cells containing no nucleus in the cytoplasm, and the cells having a lot of nuclei in the cytoplasm were judged as abnormal cells. In Examples 1 and 2, M phase cells were further classified into normal metaphase cells (the one nucleus in metaphase is located in the cytoplasm) and abnormal metaphase cells (the two or more nuclei in metaphase are located in the cytoplasm). The cells in interphase were classified into normal interphase cells (only one nucleus having nuclear membrane exists in the cytoplasm) and abnormal interphase cells (two or more nuclei having nuclear membrane exist in the cytoplasm, or the nucleus in the cytoplasm is fragmented).
D-MEM medium in a petri dish containing cells in logarithmic growth phase was replaced with 5 ml of S-MEM medium containing 1.0 μM 2-MeOE2, and the culturing was continued. Thirty minutes later, the shaking treatment was carried out as in Comparative Example 1 and the culture supernatant was discarded. To the petri dish after discarding the culture supernatant, fresh S-MEM medium containing 1 μM 2-MeOE2 was added and the culture was continued for another 30 minutes. Thirty minutes later, the shaking treatment was carried out as described above and the culture supernatant was centrifuged (1000 rpm, 5 minutes) to recover the cells (second time recovered cells). An aliquot of the collected cells was transferred to D-MEM medium containing 1 μM 2-MeOE2, and substantially spherical cells having clear boundary of cell membrane and having a diameter slightly larger than 20 μm were selected within 30 minutes using a glass pipette (COOK, Cat.No.PBBP-2000) having an inner diameter of 20 μm. The selected cells were immediately transferred to phosphate buffered saline (D-PBS) containing Hoechst33342 and 1 μM 2-MeOE2, and cell cycles were determined under an inverted fluorescence microscope.

[4] = 0.5 μM 2-MeOE2, first time recovered cells
[5] = 0.5 μM 2-MeOE2, first time recovered cells, of 2046 observed cells
[6] = 0.5 μM 2-MeOE2, second time recovered cells
[7] = 0.5 μM 2-MeOE2, second time recovered cells, of 2078 observed cells
[8] = 0.5 μM 2-MeOE2, third time recovered cells
[9] = 0.5 μM 2-MeOE2, third time recovered cells, of 2052 observed cells
[10] = 1 μM 2-MeOE2, first time recovered cells
[11] = 1 μM 2-MeOE2, first time recovered cells, of 2033 observed cells
[12] = 1 μM 2-MeOE2, second time recovered cells
[13] = 1 μM 2-MeOE2, second time recovered cells, of 2075 observed cells
[14] = 1 μM 2-MeOE2, third time recovered cells
[15] = 1 μM 2-MeOE2, third time recovered cells, of 2126 observed cells
[16] = 1 μM 2-MeOE2, second culture, shaking treatment, diameter not less than about 20 μm
[17] = 1 μM 2-MeOE2, second time recovered cells, 20 μm pipette, of 249 observed cells
[18] = 1 μM 2-MeOE2, second time recovered cells, selected with 20 μm pipette

Question: With `COC(=O)Nc1nc2ccc(C(=O)c3cccs3)cc2[nH]1` [nocodazole] as the molecule, how does the “cells in the metaphase obtained” value [1] read?
Answer: 25 to 34%

Question: With `COc1cc2c(cc1O)CC[C@@H]1[C@@H]2CC[C@]2(C)[C@@H](O)CC[C@@H]12` [2-MeOE2, 2-methoxyestradiol] as the molecule, how does the “Number of Metaphase Cells (mean ± SD(%))” value ([2]; 0.5 μM 2-MeOE2, 30 min, first time recovered cells, shaking treatment) read?
Answer: (28.8 ± 3.0^a) %

Question: And the “Number of Abnormal Cells (mean ± SD(%))” value [2, 4]?
Answer: (15.4 ± 5.8^a) %

Question: And the “Number of Normal Interphase Cells (mean ± SD(%))” value [2, 4]?
Answer: (55.8 ± 3.6^a) %

Question: What about the “Number of Abnormal Cells” value [2, 5] of the same molecule?
Answer: 313

Question: What about the “Number of Metaphase Cells” value [2, 5] of the same molecule?
Answer: 591

Question: What about the “Number of Normal Interphase Cells” value [2, 5] of the same molecule?
Answer: 1142

Question: And the “Number of Abnormal Cells (mean ± SD(%))” value [2, 6]?
Answer: (6.6 ± 4.2^bc) %

Question: What about the “Number of Metaphase Cells (mean ± SD(%))” value [2, 6] of the same molecule?
Answer: (45.2 ± 7.9^bc) %

Question: What about the “Number of Abnormal Cells” value [2, 7] of the same molecule?
Answer: 135

Question: And the “Number of Metaphase Cells” value [2, 7]?
Answer: 940

Question: And the “Number of Normal Interphase Cells” value [2, 7]?
Answer: 1003

Question: And the “Number of Abnormal Cells (mean ± SD(%))” value [2, 8]?
Answer: (6.4 ± 3.9^c) %

Question: What about the “Number of Metaphase Cells (mean ± SD(%))” value [2, 8] of the same molecule?
Answer: (46.0 ± 7.5^c) %

Question: And the “Number of Normal Interphase Cells (mean ± SD(%))” value [2, 8]?
Answer: (47.6 ± 4.7^c) %

Question: And the “Number of Abnormal Cells” value [2, 9]?
Answer: 130

Question: What about the “Number of Metaphase Cells” value [2, 9] of the same molecule?
Answer: 945

Question: What about the “Number of Normal Interphase Cells” value [2, 9] of the same molecule?
Answer: 977

Question: And the “percentage of the M phase cells” value ([2]; 0.5 μM or 1.0 μM 2-MeOE2 with shaking treatment, first to third time recovered cells, shaking only 26.1%)?
Answer: 28.8 to 81.2%

Question: What about the “Number of Abnormal Cells (mean ± SD(%))” value [2, 10] of the same molecule?
Answer: (11.4 ± 5.6^d) %

Question: And the “Number of Metaphase Cells (mean ± SD(%))” value [2, 10]?
Answer: (50.1 ± 8.6^d) %

Question: And the “Number of Normal Interphase Cells (mean ± SD(%))” value [2, 10]?
Answer: (38.5 ± 6.8^d) %

Question: What about the “Number of Abnormal Cells” value [2, 11] of the same molecule?
Answer: 232

Question: And the “Number of Metaphase Cells” value [2, 11]?
Answer: 1017

Question: What about the “Number of Normal Interphase Cells” value [2, 11] of the same molecule?
Answer: 784

Question: And the “Number of Abnormal Cells (mean ± SD(%))” value [2, 12]?
Answer: (3.1 ± 1.5^ef) %

Question: What about the “Number of Metaphase Cells (mean ± SD(%))” value [2, 12] of the same molecule?
Answer: (77.7 ± 5.4^e) %

Question: And the “Number of Normal Interphase Cells (mean ± SD(%))” value [2, 12]?
Answer: (19.2 ± 5.0^ef) %

Question: And the “Number of Abnormal Cells” value [2, 13]?
Answer: 63

Question: And the “Number of Metaphase Cells” value [2, 13]?
Answer: 1614

Question: And the “Number of Normal Interphase Cells” value [2, 13]?
Answer: 398

Question: And the “Number of Abnormal Cells (mean ± SD(%))” value [2, 14]?
Answer: (3.2 ± 1.7^f) %

Question: What about the “Number of Metaphase Cells (mean ± SD(%))” value [2, 14] of the same molecule?
Answer: (81.2 ± 5.0^f) %

Question: What about the “Number of Normal Interphase Cells (mean ± SD(%))” value [2, 14] of the same molecule?
Answer: (15.6 ± 3.3^f) %

Question: And the “Number of Abnormal Cells” value [2, 15]?
Answer: 68

Question: And the “Number of Metaphase Cells” value [2, 15]?
Answer: 1728

Question: And the “Number of Normal Interphase Cells” value [2, 15]?
Answer: 330

Question: What about the “M phase cells among the collected cells” value [3, 16] of the same molecule?
Answer: 99.1%

Question: What about the “normal metaphase cells among the collected cells (243/246)” value [3, 16] of the same molecule?
Answer: 98.8%

Question: And the “Number of Abnormal Interphase Cells” value [3, 17]?
Answer: 0

Question: And the “Number of Abnormal Metaphase Cells” value [3, 17]?
Answer: 3

Question: And the “Number of Normal Interphase Cells” value [3, 17]?
Answer: 3

Question: And the “Number of Normal Metaphase Cells” value [3, 17]?
Answer: 243

Question: What about the “Number of Abnormal Interphase Cells (mean ± SD(%))” value [3, 18] of the same molecule?
Answer: (0.0 ± 0.0) %

Question: And the “Number of Abnormal Metaphase Cells (mean ± SD(%))” value [3, 18]?
Answer: (1.3 ± 2.5) %

Question: What about the “Number of Normal Interphase Cells (mean ± SD(%))” value [3, 18] of the same molecule?
Answer: (1.0 ± 1.1) %

Question: And the “Number of Normal Metaphase Cells (mean ± SD(%))” value [3, 18]?
Answer: (97.8% ± 2.1)
